# Measured values: patent US20260109721A1, “IONIZABLE CATIONIC LIPIDS INCORPORATING SILICON: SYNTHESIS AND LNP FORMULATION” (priority 2023, published 2026)
# Test system: HepG2 cell line
# Assay: In vitro toxicity study on HepG2 cell line (resazurin, viability and IC50)
# Format: cell-based, human
# Conditions: resazurin; for Viability (%) at different lipid concentrations, mean: HepG2 cells, 48 h post-treatment, relative to ethanol vehicle controls; for IC50: Homo sapiens, lipid toxicity, HepG2, 48 h post-treatment, 6.25-800 μM, read-out: IC50 value, μM (on HepG2 cell)
# Protocol: The synthesized lipids were tested in term of in vitro transfection efficacy and toxicity on HeLa cells. In order to perform the mentioned biological tests, appropriate LNPs had to be formulated from the synthesized lipids. The formulation technique was different in Method A and B. The particle size, polydispersity index (PDI) and zeta potential of resulting LNPs were determined by means of Dynamic Light Scattering technique (DLS). Prior to biological testing the encapsulation efficiency (EE) of the loaded LNPs was determined by using RiboGreen RNA assay. In case of Method A Luc mRNA while in case of Method B GFP mRNA was transfected into the cells. In parallel with the transfection experiments, toxicity of the investigated LNPs was determined, in case of Method A resazurin assay while in case of Method B MTT assay was used. Additionally, the toxicity of the lipids was investigated on HepG2 cells and IC50 values were determined.
# HepG2 cell line (human hepatocellular carcinoma) were maintained in DMEM medium supplemented with 10% FBS. Cell toxicity measurements were carried out in 384-well microtiter plates with 1000 cells seeded in each well. Test measurements were carried out in triplicate, and control measurements in quadruplicate. After an overnight incubation, the cells were treated with an increasing concentration of the test compounds (6.25, 12.5, 25, 50, 100, 200, 400, 800 μM). […] 48 h post-treatment, following visual inspection under an inverted microscope, cell viability was measured by resazurin assay. Viability of treated cells was calculated relative to that of ethanol vehicle controls. Concentration response curves (CRCs) were obtained and corresponding IC50 values were calculated where applicable and are shown in Table 9.
# Resazurin reagent (Sigma-Aldrich) was dissolved in PBS (pH 7.4) at 0.15 mg/ml concentration, 0.22 μm filtered and aliquoted at −20° C., 10 μl resazurin stock solution was added to wells. After 5 hours incubation at 37° C. under 5% CO2 fluorescence (530 nm excitation/580 nm emission) was recorded on a multimode microplate reader.
Structure (SMILES),"Viability (%) at different lipid concentrations, mean (6.25 μM lipid) [%]","Viability (%) at different lipid concentrations, mean (12.5 μM lipid) [%]","Viability (%) at different lipid concentrations, mean (25 μM lipid) [%]","Viability (%) at different lipid concentrations, mean (50 μM lipid) [%]","Viability (%) at different lipid concentrations, mean (100 μM lipid) [%]","Viability (%) at different lipid concentrations, mean (200 μM lipid) [%]","Viability (%) at different lipid concentrations, mean (400 μM lipid) [%]","Viability (%) at different lipid concentrations, mean (800 μM lipid) [%]",IC50 [µM]
"CCCCC/C=C\C/C=C\CCCCCCCCOC(CCCCCCC/C=C\C/C=C\CCCCC)O[Si](C)(C)OCCCCCCN(CCCO)CCCO (stereo not shown) [Example 61, (24Z,27Z)-14-((8Z,11Z)-heptadeca-8,11-dien-1-yl)-4-(3-hydroxypropyl)-12,12-dimethyl-11,13,15-trioxa-4-aza-12-silatritriaconta-24,27-dien-1-ol]",100.6,110.1,116.5,106.3,54.4,14.9,−0.5,−1.4,102
"CCCCC/C=C\C/C=C\CCCCCCCCOC(CCCCCCC/C=C\C/C=C\CCCCC)O[Si](C)(C)OCCCCCCN1CCCC1CO (stereo not shown) [Example 63, (1-((20Z,23Z)-10-((8Z,11Z)-heptadeca-8,11-dien-1-yl)-8,8-dimethyl-7,9,11-trioxa-8-silanonacosa-20,23-dien-1-yl)pyrrolidin-2-yl)methanol]",99.3,96.4,96.6,98.3,94.8,91.6,85.3,74.5,> 800
"CCCCC/C=C\C/C=C\CCCCCCCCOC(CCCCCCC/C=C\C/C=C\CCCCC)O[Si](C)(C)OCCCCCCN1CCC(CO)CC1 (stereo not shown) [Example 65, (1-((20Z,23Z)-10-((8Z,11Z)-heptadeca-8,11-dien-1-yl)-8,8-dimethyl-7,9,11-trioxa-8-silanonacosa-20,23-dien-1-yl)piperidin-4-yl)methanol]",,,,,,,,,742
"CCCCCCCCO[Si](C)(C)O[Si](C)(C)OC(CCCCCCC)OCCCCCCN(C)CCN(C)CCN(C)CCCCCCOC(CCCCCCC)O[Si](C)(C)O[Si](C)(C)OCCCCCCCC (stereo not shown) [Example 83, N^1-(11-heptyl-3,13,13,15,15-pentamethyl-10,12,14,16-tetraoxa-3-aza-13,15-disilatetracosyl)-N^1,N^2-dimethyl-N^2-(6-((1-((1,1,3,3-tetramethyl-3-(octyloxy)disiloxaneyl)oxy)octyl)oxy)hexyl)ethane-1,2-diamine]",100.51,98.95,100.30,101.93,83.41,41.91,2.25,−1.25,176
